Results as given in patent US20210353595A1, “USE OF MELATONIN IN PREPARATION OF MEDICAMENT FOR INHIBITING AND/OR KILLING BACTERIUM” (priority 2020, published 2021).
In brackets after ≈: the same amount, converted by molar mass. Entries after “also recorded” stand apart in the source; their conditions may differ.

Assays:
Streptococcus = test: Growth curve with melatonin and citric acid; assay type: cell-based, Streptococcus pneumoniae; details: MT 1-3 mg/mL, FIG. 27
Method: (§1) In additional studies, 1 mL of Klebsiella pneumoniae, Pseudomonas aeruginosa, Diplococcus pneumoniae and Streptococcus pneumoniae at the logarithmic growth stage was added into 100 mL of fresh and sterile Martin broth medium containing different concentrations of melatonin and citric acid (CA) (MT-1 mg/mL, MT-1 mg/mL-CA-1 mg/mL, MT-1 mg/mL-CA-2 mg/mL, MT-1 mg/mL-CA-3 mg/mL; MT-2 mg/mL, MT-2 mg/mL-CA-1 mg/mL, MT-2 mg/mL-CA-2 mg/mL, MT-2 mg/mL-CA-3 mg/mL; MT-3 mg/mL, MT-3 mg/mL-CA-1 mg/mL, MT-3 mg/mL-CA-2 mg/mL MT-3 mg/mL-CA-3 mg/mL).

Pneumococcus = test: Growth curve with melatonin and citric acid; assay type: cell-based, Diplococcus pneumoniae; details: MT 1-3 mg/mL, FIG. 27
Method: as §1

Pasteurella multocida [1] = test: Bacteriostatic activity, bacterial growth curve (OD600); assay type: cell-based; details: MT 1, 1.5 and 2 mg/mL (lower than MBC); OD600 every 2 hours; FIG. 1
Method: In order to further verify the bacteriostatic activity of melatonin against Pasteurella multocida, the bacterial growth curve was determined in view of an increase of melatonin concentration. […] Then the bacteria were cultured in a shaker at a constant temperature of 37° C. at 220 rpm, and the bacterial culture was determined for OD600 every 2 hours with an ultraviolet spectrophotometer to detect the effect of melatonin on the bacterial growth curve. Each experiment was carried out for three times, and each group was set in triplicate.

P. multocida cells = test: SEM and TEM morphology of bacterial cells; assay type: cell-based, Pasteurella multocida; details: MT 1, 2 or 3 mg/mL, 8, 12 or 16 hours
Method: The effect of melatonin on the morphologies of P. multocida cells were evaluated employing SEM and TEM. 1 mL of fresh Pasteurella multocida (1×10^9 CFU) at the logarithmic growth stage was added into 100 mL of fresh Martin liquid medium containing different concentrations (1, 2 or 3 mg/mL) of MT. MT-free DMSO was used as a solvent control group and ampicillin (100 μg/mL) was used as a positive control group. All cultures were shaken at 220 rpm in a shaker at 37° C. for 8 hours, 12 hours or 16 hours. The bacterial samples were centrifuged at 3000 r/min for 10 minutes, the supernatant was removed, and cells were collected and washed with PBS for 3 times. Then the cells were fixed with a fixation solution of 2.5% fresh glutaraldehyde for 6 hours, and washed with PBS for 3 times, each time for 10 minutes. Subsequently, the SEM samples were dehydrated with 50%, 70%, 80% and 90% ethanol for 15 minutes respectively, and then dehydrated with 100% ethanol for 3 times, each time for 30 minutes. Ethanol was removed by washing with tert-butyl alcohol for three times, each time for 30 minutes. The samples were dried by a freeze dryer and plated with 10 nm of gold film by an ion sputtering device. The samples were examined using a field scanning electron microscope (FESEM, Hitch SU8010).
The TEM samples were fixed with 1%-2% […] for 2-3 hours, and washed with […] 3 times, each time for 10 minutes. The samples were dehydrated with 30%, 50%, 70%, 80% and 90% ethanol for 20 minutes respectively, and then dehydrated with 100% ethanol 3 times, each time for 30 minutes. Ethanol was replaced with acetone three times, each time for 30 minutes. The bacterial samples were placed on a copper grid with a formvar membrane, and negatively stained with phosphotungstic acid (2% v/v, pH=6.7). The surface area of the sample was less than 0.2 mm×0.2 mm, and slice thickness was between 50 and 90 nm (Lycra UC7). The samples were detected by TEM (Hitachi H-7650) at 80 kV, and photographs of the samples were taken by a Gatan832 CCD camera (Gatan). […]

[2] = test system: gram-negative bacteria and gram-positive bacteria; test: MIC/MBC test, summary over all tested bacteria; assay type: cell-based; details: range over all gram-negative and gram-positive bacteria of Table 1
Method: 1 mL of a fresh suspension of bacteria (1×10^9 CFU) at the logarithmic growth stage was added into 100 mL containing different concentrations (50 mg/mL, 25 mg/mL, 12.5 mg/mL, 6.25 mg/mL, 3.125 mg/mL, 1.5625 mg/mL, 0.78125 mg/mL, 0.390625 mg/mL) of melatonin. A melatonin (MT)-free solution diluted with DMSO was used as a control group. The samples were shaken at 37° C. and a rotation speed of 120 r/min with protection from light for 12 hours, and then subjected to detection of the minimal inhibitory concentration (MIC) of MT on bacteria. Then, 0.1 mL of the aforementioned transparent bacterial solution was pipetted onto a sterilized agar plate of a specific culture medium and coated evenly, incubated in an incubator at 37° C. for 24 hours, and then subjected to detection of the minimum bactericidal concentration (MBC) of MT on pathogens, wherein the minimum concentration of MT at which no bacterium grew was the MBC of MT on pathogens. Each experiment was carried out for 3 times, and each group was set in triplicate.

Pasteurella multocida [3] = test: LIVE/DEAD BacLight integrity of bacterial cell membrane; assay type: cell-based; details: melatonin greater than the MIC concentration; 8, 12, 16 hours; time- and dose-dependent; FIG. 9
Method: The integrity of bacterial cell membrane was evaluated with a LIVE/DEAD BacLight bacterial detection kit. 1 mL of bacterial culture was centrifuged at 3000 rpm for 10 minutes, the supernatant was removed, and the cells were washed with 10 mL of 0.85% NaCl for 3 times. The precipitated cells were resuspended and mixed with 1 mL of 0.85% NaCl. Then a mixture of SYTO9 fluorescent nucleic acid dye and propidium iodide mixed at the equal volume (3 μL each) was added into the resuspended solution. The mixture was thoroughly mixed and incubated in the dark at room temperature for 15 minutes. 5 μL of suspension of stained bacteria was added between a slide glass and a 18 mm square cover glass. (The combination of two nucleic acid dyes in this kit can distinguish living bacteria with intact membranes from dead bacteria with damaged membranes.) The living bacteria were dyed green with SYTO9, while the dead bacteria presented as red because of the interaction between propidium iodide and the double-stranded DNA of the bacteria. The fluorescence micrographs of stained bacteria were taken by OLYMPUS IX51 inverted microscope. Each experiment was carried out in triplicate for three times.

Klebsiella pneumoniae = test: Growth curve with melatonin and citric acid; assay type: cell-based; details: MT 1-3 mg/mL, FIG. 27
Method: as §1

Pseudomonas aeruginosa = test: Growth curve with melatonin and citric acid; assay type: cell-based; details: MT 1-3 mg/mL, FIG. 27
Method: as §1

Compound: COc1ccc2[nH]cc(CCNC(C)=O)c2c1 [melatonin, N-acetyl-5-methoxytryptamine]
- antibacterial activity (Streptococcus): exhibits antibacterial activity
- antibacterial activity (Pneumococcus): exhibits antibacterial activity
- bacterial growth (growth curve, OD600) (Pasteurella multocida [1]): significantly inhibits bacterial growth
- cell morphology in SEM analysis (P. multocida cells; FIG. 10): many holes passing through the OM, peptidoglycan (PG) layers and CM
- cell morphology in TEM image (P. multocida cells; FIG. 11): obvious cytoplasmic vacuolization
- MBC [2]: 3.12 to 50 mg/mL (≈ 13.5 to 215 mM)
- MIC [2]: 1.56 to 50 mg/mL (≈ 6.73 to 215 mM)
- damage to bacterial cell membrane (SYTO9 / propidium iodide fluorescence) (Pasteurella multocida [3]): the red fluorescence increased and the green fluorescence decreased; also recorded: damages the cell membrane
- antibacterial activity (Klebsiella pneumoniae): exhibits antibacterial activity
- antibacterial activity (Pseudomonas aeruginosa): exhibits antibacterial activity
